What was measured:
[1] = target: SARS-CoV-2 Papain-like (PLpro) protease (Severe acute respiratory syndrome coronavirus 2, UniProt P0DTD1); assay: SARS-CoV-2 Papain-like (PLpro) protease biochemical enzyme inhibition assay (ubiquitin-fluorophore substrate, Ub-R110); conditions: Ub-R110 substrate; run in duplicate; read-out: PLpro IC50
SARS-CoV-2 replicon = assay: microbe, parasite or virus in culture; format: cell-based; conditions: Severe acute respiratory syndrome coronavirus 2, Huh-7

Structure (SMILES)	IC50 [1]	EC50 (SARS-CoV-2 replicon)
COC(=O)/C=C/CNC(=O)C(=O)NCc1ccccc1C(=O)N[C@H](C)c1cc(-c2ccoc2)cc(C(F)(F)F)c1 [Example 465]	< 100 nM	< 1000 nM
C[C@@H](NC(=O)c1ccccc1CNC(=O)C(=O)NCC#N)c1cc(-c2ccco2)cc(C(F)(F)F)c1 [Example 467]	< 100 nM	< 1000 nM
C#CCNC(=O)C(=O)NCc1ccccc1C(=O)NC1(c2cc(-c3ccccc3)cc(C(F)(F)F)c2)CC1 [Example 469]	< 100 nM	1000 to 10000 nM
N#CCNC(=O)C(=O)NCc1ccccc1C(=O)NC1(c2cc(-c3cnn(C4CC4)c3)cc(C(F)(F)F)c2)CC1 [Example 470]	< 100 nM	1000 to 10000 nM
C#CCNC(=O)C(=O)NCc1ccccc1C(=O)NC1(c2cc(-c3cnn(C4CC4)c3)cc(C(F)(F)F)c2)CC1 [Example 471]	< 100 nM	< 1000 nM
N#CCNC(=O)C(=O)NCc1ccccc1C(=O)NC1(c2cc(-c3cnn(C(F)F)c3)cc(C(F)(F)F)c2)CC1 [Example 472]	100 to 1000 nM	> 10000 nM
C#CCNC(=O)C(=O)NCc1ccccc1C(=O)NC1(c2cc(-c3cnn(C(F)F)c3)cc(C(F)(F)F)c2)CC1 [Example 473]	100 to 1000 nM	1000 to 10000 nM
Cc1n[nH]c(C)c1-c1cc(C(F)(F)F)cc(C2(NC(=O)c3ccccc3CNC(=O)C(=O)NCC#N)CC2)c1 [Example 476]	100 to 1000 nM	1000 to 10000 nM
C#CCNC(=O)C(=O)NCc1ccccc1C(=O)NC1(c2cc(-c3c(C)n[nH]c3C)cc(C(F)(F)F)c2)CC1 [Example 477]	< 100 nM	< 1000 nM
N#CCNC(=O)C(=O)NCc1ccccc1C(=O)NC1(c2cc(Cl)cc(-n3cccn3)c2)CC1 [Example 480]	< 100 nM	1000 to 10000 nM
C#CCNC(=O)C(=O)NCc1ccccc1C(=O)NC1(c2cc(Cl)cc(-n3cccn3)c2)CC1 [Example 481]	100 to 1000 nM	1000 to 10000 nM
C#CCNC(=O)C(=O)NCc1ccccc1C(=O)NC1(c2cc(Cl)cc(-c3nnc(C)o3)c2)CC1 [Example 484]	< 100 nM	< 1000 nM
C#CCNC(=O)C(=O)NCc1ccccc1C(=O)NC1(c2cc(Cl)cc(-c3cn(C)nc3C)c2)CC1 [Example 485]	< 100 nM	< 1000 nM
Cc1nn(C)cc1-c1cc(Cl)cc(C2(NC(=O)c3ccccc3CNC(=O)C(=O)NCC#Cc3nccs3)CC2)c1 [Example 486]	< 100 nM	< 1000 nM
O=C(NCC#Cc1nccs1)C(=O)NCc1ccccc1C(=O)NC1(c2cc(Cl)cc(-c3ncco3)c2)CC1 [Example 487]	< 100 nM	< 1000 nM
O=C(NCC#Cc1nccs1)C(=O)NCc1ccccc1C(=O)NC1(c2cc(F)cc(-n3cc(C4CC4)cn3)c2)CC1 [Example 489]	< 100 nM	< 1000 nM
Cc1nn(C)c(C)c1-c1cc(F)cc(C2(NC(=O)c3ccccc3CNC(=O)C(=O)NCC#Cc3nccs3)CC2)c1 [Example 490]	< 100 nM	< 1000 nM
C[C@@H](NC(=O)c1ccccc1CNC(=O)C(=O)NCC#Cc1nccs1)c1cc(F)cc(-c2cnn(C3CC3)c2)c1 [Example 491]	< 100 nM	< 1000 nM
C[C@@H](NC(=O)c1ccccc1CNC(=O)C(=O)NCC#Cc1nccs1)c1cc(F)cc(-c2cnn(C(F)F)c2)c1 [Example 492]	< 100 nM	< 1000 nM
C[C@@H](C#Cc1nccs1)NC(=O)C(=O)NCc1ccccc1C(=O)NC1(c2cc(Cl)cc(-c3ncco3)c2)CC1 [Example 493]	< 100 nM	< 1000 nM
C[C@@H](C#Cc1nccs1)NC(=O)C(=O)NCc1ccccc1C(=O)NC1(c2cc(Cl)cc(-c3nccs3)c2)CC1 [Example 494]	< 100 nM	< 1000 nM
C[C@@H](C#Cc1nccs1)NC(=O)C(=O)NCc1ccccc1C(=O)N[C@H](C)c1cc(F)cc(-c2cnn(C3CC3)c2)c1 [Example 495]	< 100 nM	< 1000 nM
C[C@@H](C#Cc1nccs1)NC(=O)C(=O)NCc1ccccc1C(=O)N[C@H](C)c1cc(F)cc(-c2cnn(C(F)F)c2)c1 [Example 496]	< 100 nM	< 1000 nM
N#CN1CC[C@H]1CNC(=O)C(=O)NCc1ccccc1C(=O)NC1(c2cccc3ccccc23)CC1 [Example 500]	< 100 nM	< 1000 nM
N#CN1CCC[C@H]1CNC(=O)C(=O)NCc1ccccc1C(=O)NC1(c2cccc3ccccc23)CC1 [Example 504]	< 100 nM	< 1000 nM

Structure (SMILES)	IC50 [1]	EC50 (SARS-CoV-2 replicon)
N#CN1CC[C@@H](CNC(=O)C(=O)NCc2ccccc2C(=O)NC2(c3cccc4ccccc34)CC2)C1 [Example 509]	< 100 nM	< 1000 nM
O=C(C#CCNC(=O)C(=O)NCc1ccccc1C(=O)NC1(c2cccc3ccccc23)CC1)NC1CC(F)(F)C1 [Example 519]	< 100 nM	< 1000 nM
O=C(C#CCNC(=O)C(=O)NCc1ccccc1C(=O)NC1(c2cccc3ccccc23)CC1)N[C@H]1CC[C@H](C(F)(F)F)CC1 [Example 520]	< 100 nM	< 1000 nM
CON(C)C(=O)C#CCNC(=O)C(=O)NCc1ccccc1C(=O)NC1(c2cccc3ccccc23)CC1 [Example 524]	< 100 nM	< 1000 nM
O=C(NCC#CC(=O)N1CCCO1)C(=O)NCc1ccccc1C(=O)NC1(c2cccc3ccccc23)CC1 [Example 526]	< 100 nM	< 1000 nM
COc1cc(C2(NC(=O)c3ccccc3CNC(=O)C(=O)N[C@@H](C)C#Cc3ncccn3)CC2)cc2cn(C3CC3)nc12 [Example 532]	< 100 nM	< 1000 nM
CC(C)OC(=O)/C=C/CNC(=O)C(=O)NCc1ccccc1C(=O)NC1(c2cccc3ccccc23)CC1 [Example 538]	100 to 1000 nM	1000 to 10000 nM
O=C(/C=C/CNC(=O)C(=O)NCc1ccccc1C(=O)NC1(c2cccc3ccccc23)CC1)NC1CC1 [Example 541]	100 to 1000 nM	> 10000 nM
N#CCNC(=O)C(=O)NCc1ccccc1C(=O)NC1(c2cccc(-c3ccc(F)cc3)c2)CC1 [Example 543]	100 to 1000 nM	> 10000 nM
N#CCNC(=O)C(=O)NCc1ccccc1C(=O)NC1(c2cccc(Br)c2)CC1 [Example 545]	100 to 1000 nM	> 10000 nM
O=C(NC/C=C/C(=O)N1CC(F)(F)C1)C(=O)NCc1ccccc1C(=O)NC1(c2cccc3ccccc23)CC1 [Example 554]	100 to 1000 nM	1000 to 10000 nM
O=C(NC/C=C/C(=O)N1CC[C@H](O)C1)C(=O)NCc1ccccc1C(=O)NC1(c2cccc3ccccc23)CC1 [Example 555]	100 to 1000 nM	1000 to 10000 nM
COCCN(C)C(=O)/C=C/CNC(=O)C(=O)NCc1ccccc1C(=O)NC1(c2cccc3ccccc23)CC1 [Example 556]	100 to 1000 nM	1000 to 10000 nM
O=C(NC/C=C/C(=O)N1CCCC1)C(=O)NCc1ccccc1C(=O)NC1(c2cccc3ccccc23)CC1 [Example 557]	< 100 nM	1000 to 10000 nM
CCN(OC)C(=O)/C=C/CNC(=O)C(=O)NCc1ccccc1C(=O)NC1(c2cccc3ccccc23)CC1 [Example 558]	100 to 1000 nM	1000 to 10000 nM
CNN(C)C(=O)/C=C/CNC(=O)C(=O)NCc1ccccc1C(=O)NC1(c2cccc3ccccc23)CC1 [Example 559]	100 to 1000 nM	1000 to 10000 nM
CONC(=O)/C=C/CNC(=O)C(=O)NCc1ccccc1C(=O)NC1(c2cccc3ccccc23)CC1 [Example 560]	100 to 1000 nM	1000 to 10000 nM
O=C(/C=C/CNC(=O)C(=O)NCc1ccccc1C(=O)NC1(c2cccc3ccccc23)CC1)Nc1ccccc1 [Example 561]	100 to 1000 nM	1000 to 10000 nM
O=C(NC/C=C/C(=O)N1CC[C@@H](O)C1)C(=O)NCc1ccccc1C(=O)NC1(c2cccc3ccccc23)CC1 [Example 563]	< 100 nM	> 10000 nM
N#CC1(NC(=O)/C=C/CNC(=O)C(=O)NCc2ccccc2C(=O)NC2(c3cccc4ccccc34)CC2)CC1 [Example 564]	100 to 1000 nM	1000 to 10000 nM
O=C(NC/C=C/C(=O)N1CCCCO1)C(=O)NCc1ccccc1C(=O)NC1(c2cccc3ccccc23)CC1 [Example 566]	100 to 1000 nM	1000 to 10000 nM
O=C(NC/C=C/C(=O)n1cccn1)C(=O)NCc1ccccc1C(=O)NC1(c2cccc3ccccc23)CC1 [Example 567]	100 to 1000 nM	1000 to 10000 nM
O=C(NC/C=C/C(=O)N1CCCO1)C(=O)NCc1ccccc1C(=O)NC1(c2cccc3ccccc23)CC1 [Example 568]	100 to 1000 nM	1000 to 10000 nM
O=C(/C=C/CNC(=O)C(=O)NCc1ccccc1C(=O)NC1(c2cccc3ccccc23)CC1)Nc1ccccn1 [Example 569]	100 to 1000 nM	< 1000 nM
CC(C)(C)OC(=O)/C=C/CNC(=O)C(=O)NCc1ccccc1C(=O)NC1(c2cccc3ccccc23)CC1 [Example 571]	100 to 1000 nM	1000 to 10000 nM

Reference: patent US20240327334A1, “Covalent Inhibitors As Antiviral Agents” (Enanta Pharmaceuticals, Inc., priority 2022, published 2024)
